Test results as given in patent US20180296663A1 (priority 2015, published 2018).

Columns and labels:
CD4+ T cells = tested on: CD4+ T cells; set-up: species or system BALB/c mice; settings: mouse, in vivo
CD8+ T cells = tested on: CD8+ T cells; set-up: species or system Balb/c mice; settings: mouse, in vivo

## Nc1nc2c(ncn2[C@@H]2O[C@@H]3COP(=O)(O)O[C@H]4[C@@H](O)[C@H](n5cnc6c(=O)[nH]c(N)nc65)O[C@@H]4COP(=O)(O)O[C@H]3[C@H]2O)c(=O)[nH]1 [c-di-GMP, cyclic diguanylate monophosphate]
CD4+ T cells
  frequencies of HA-specific IFN-γ+/TNF+ CD4+ T cells: higher frequencies
  frequencies of HA-specific IFN-γ+/TNF+CD4+ T cells: higher frequencies

## HMGB1: high mobility group protein (HMGB) compound, which may act as an endogenous immunomodulator
CD8+ T cells
  number of IFNγ/TNF double-positive multifunctional CD8+ T cells in the spleen: significant increase
